Source: article PMC9170106, “Pre-clinical evaluation of LASSBio-1491: From in vitro pharmacokinetic study to in vivo leishmanicidal activity” (PLoS ONE, 2022)
Several values for one entry are separate records, joined by “and”; a condition that tells them apart may be missing. Identical values can stand only once.

Key:
[1] = Aqueous solubility by UV spectroscopy; type: physicochemical; conditions: phosphate buffer solution, buffer solution pH 7.4, 37 °C
Procedure: The solubility assay was carried out by correlating the concentration with the absorbance obtained by ultraviolet. First, a stock solution of the compound was prepared by dissolving 1 mg in 20 mL of methanol, and then the wavelength of greatest absorption of each compound was obtained by scanning between wavelengths from 200 nm to 500 nm. From the stock solution, six dilutions were prepared (dilution factor: 2.5), and the absorbance reading was performed in quartz cuvettes (10 mm optical path) in the UV-VIS spectrophotometer (Femto 800XI) at the previously determined wavelength. With the values obtained, a calibration curve with linear regression was made, in which the linearity of the analytical method is observed, with values of correlation coefficient (p > 0.95).
The compound was dissolved in a phosphate buffer solution (pH 7.4), prepared according to the Brazilian Pharmacopoeia (Vol.1) to obtain a supersaturated solution. The supersaturated aqueous solution was kept under stirring for 4 hours at 37°C and then the sample was filtered on a 0.45 μm filter to carry out the reading at the corresponding wavelength of the compound. The solubility was then determined through the equation of the straight line obtained by the linear regression of the calibration curve of each compound [19].

PAMPA-BBB permeability = assay: PAMPA-BBB permeability
Text: (§1) The parallel artificial membrane permeability assay uses 96-well plate in a “sandwich” type system, where one plate overlaps the other (PAMPA). […] The lipid mixture that impregnates the PVDF filter has a different constitution for the permeability tests for the blood-brain barrier (Brain lipid from pig extract in dodecane) and gastro-intestinal tract (L-α soy phosphatidylcholine in dodecane). In the PAMPA BBB and TGI assays, the optical density values obtained in the reading at each selected wavelength, for each of the compounds were analyzed in comparison with the values of several controls. In the case of the BBB, these values were used to elaborate an equation and determine the permeability coefficient (Pe), using a previously elaborated spreadsheet, and, for the TGI, these values were used to determine the absorbed fraction (Fa%), both using the Excel® program.

PAMPA-GIT permeability = conditions: PAMPA-GIT conditions
Text: as §1

Plasma stability = type: in vitro ADME, rat
Procedure: For analysis of plasma stability, the LASSBio-1491 in a final concentration of 5 μM from stock solution of 1 mM, was added in 50 μL of rat plasma solution diluted in 250 μL with PBS (pH 7.4) and was placed in a shaker at 37 °C under vigorous stirring for 0, 30, 60, 120 and 240 minutes. After each reaction time, 500 μL of cold methanol and 500 μL of cold acetonitrile containing 5 uM of methyl 1,1’biphenyl-4-carboxylate 5 μM (internal standard) were added to the wells to stop the reaction. The solution was mixed and centrifuged at 24500 x g for 15 min (Universal centrifuge 320R Hettich®). The supernatant (1 mL) was filtrated and placed in vials to be analyzed by HPLC-PDA, Shimadzu—LC20AD, Kromasil C-18 column (4.6 mm x 250 mm, 5 μm), SPD M20A diode array detector, flow 1 mL/min, mobile phase acetonitrile: water 1:1 (v/v) for LASSBio-1491 and acetonitrile: water 60:40 (v/v) for LASSBio-1736, for 20 minutes at 254 nm wavelength.

Microsomal metabolism [2] = type: in vitro ADME; conditions: rat liver microsomes
Procedure: The study of the microsomal metabolism of the compounds was evaluated by placing 1 mg/ml rat liver microsome in a microcentrifuge tube, in the presence of a NADPH generator system (1 mM NADP^+, 1.5 mM MgCl2, 3.5 mM glucose-6-phosphate and 0.5 U/mL glucose-6-phosphate dehydrogenase) and phosphate buffer pH 7.4 in sufficient quantity for 250 μL. After 15 minutes of pre-incubation at 37°C in a water bath, the enzymatic reactions were started by adding 2 μL of a stock solution 1 mM from one of the prototypes (500 μL 20% DMSO 80% CH3CN), so that a final concentration of 5 μM was reached (0.2% DMSO, 0.8% acetonitrile).
Then, the samples were again incubated at 37°C under agitation for predetermined and fixed periods (0, 15, 30, 45 and 60 minutes). At the end of the incubation period 500 μL of cold methanol and 500 μL of cold acetonitrile containing 5 μM of methyl 1,1’biphenyl-4-carboxylate 5 μM (internal standard) were added to the wells to stop the reaction and the samples were homogenized and kept in an ice bath to accelerate protein precipitation. The mixture was centrifuged at 24500 x g for 15 minutes at 4°C (Universal centrifuge 320R Hettich®). Finally, the supernatant (1 mL) was filtrated and placed in vials to be analyzed by HPLC-PDA, Shimadzu—LC20AD, Kromasil C-18 column (4.6 mm x 250 mm, 5 μm), SPD M20A diode array detector, flow 1 mL/min, mobile phase acetonitrile: water 1:1 (v/v) for LASSBio-1491 and acetonitrile: water 60:40 (v/v) for LASSBio-1736, 20 minutes at 254 nm wavelength. Then, the microsomal half-life and clearance were calculated.

[3] = set-up: method as in PMID 35497630, PMID 29160126; conditions: cited from earlier work
Microsomal metabolism [4] = type: in vitro ADME; conditions: rat liver microsomes, without NADPH regenerating system
[5] = set-up: method as in PMID 35497630; conditions: cited from earlier work

O=C(N/N=C/c1ccc(C(F)(F)F)cc1)NNC(=O)c1ccc(Cl)cc1Cl [LASSBio-1736]
solubility at 4 h [1]: 0.26 µM and 0.109 µg/mL | Papp (PAMPA-BBB permeability; PAMPA): 10.6 ×10⁻⁶ cm/s | Classification (PAMPA-BBB permeability; PAMPA-BBB): CNS+ | solubility in the PAMPA-GIT experimental set (PAMPA-GIT permeability): insoluble | Elimination rate constant (k) (Plasma stability; rat plasma): 0.0004 | t1/2 (Plasma stability; rat plasma): 28.9 h | Metabolism rate (Plasma stability; rat plasma, 5 μM, 37 °C, up to 240 min): 7.30% | half-life at 5 μM (Plasma stability; rat, rat plasma diluted with PBS, pH 7.4, rat plasma): 19.2 h | recovery at 5 μM (Plasma stability; rat, rat plasma diluted with PBS, pH 7.4, read-out: Recovery rate): 59.9% | half-life at 5 μM (Microsomal metabolism [2]; pH 7.4, with co-factor): 3.5 h | microsomal CLint at 5 μM (Microsomal metabolism [2]; pH 7.4, with co-factor, Volume x (0,693/t1/2)): 0.825 µL/min/mg | Metabolism rate with co-factor (Microsomal metabolism [2]; with NADPH regenerating system): 18.33% | Elimination rate constant (k) (Microsomal metabolism [2]; with co-factor): 0.0033 | Clapp (Microsomal metabolism [2]; with co-factor, scaled to liver and rat weight): 0.128 mL/min/kg | stability in rat plasma [3]: great stability in rat plasma | Metabolism rate non co-factor (Microsomal metabolism [4]): 5.81% | signals of hepatic or renal toxicity [5]: no preliminary signals of hepatic or renal toxicity
